Assay results published in patent US20260015350A1, “AZAQUINAZOLINE PAN-KRAS INHIBITORS” (Mirati Therapeutics, Inc., priority 2022, published 2026).

Legend:
[1] = target: T1, KRas^G12A (Homo sapiens, UniProt P01116, G12A); test: KRas binding assay (TR-FRET tracer displacement), KRas G12A; conditions: single point, 10 nM compound, TR-FRET
T1 construct: Biotinylated KRas (corresponding to amino acids 1-169, produced at Accelegan Inc.); biotin (biotinylated); purchased Accelegan Inc

[2] = tested on: KRas-mediated phosphorylation of ERK in H727 cells; test: Inhibition of KRas-mediated phosphorylation of ERK (Cisbio HTRF pERK), H727 cells; format: cell-based; conditions: Homo sapiens, NCI-H727, H727 cells; HTRF pERK
Procedure, shortened: (§1)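 H358, H727, H460 and AsPC-1 cells seeded at 6,000/well, treated 3 hrs with 10-dose 3-fold dilutions from 10 uM (0.8% DMSO); 0.2 uM trametinib as min control. Lysed 40 min at 4° C; lysate incubated 2 hrs at room temperature with d2/cryptate antibodies, HTRF read.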

[3] = tested on: KRas-mediated phosphorylation of ERK in H358 cells; test: Inhibition of KRas-mediated phosphorylation of ERK (Cisbio HTRF pERK), H358 cells; format: cell-based; conditions: Homo sapiens; for inhibition at 0.1 µM: NCI-H358, 3 h, single point, 100 nM compound, 3 hrs
Procedure, shortened: as §1

[4] = target: T2, KRas^Q61H (Homo sapiens, UniProt P01116, Q61H); test: KRas binding assay (TR-FRET tracer displacement), KRas Q61H; conditions: single point, 10 nM compound, TR-FRET
T2 construct: Biotinylated KRas (corresponding to amino acids 1-169, produced at Accelegan Inc.); biotin (biotinylated); purchased Accelegan Inc

[5] = tested on: KRas-mediated phosphorylation of ERK in HCT116 cells; test: Inhibition of KRas-mediated phosphorylation of ERK (Cisbio HTRF pERK), HCT116 cells; format: cell-based; conditions: Homo sapiens; for inhibition at 0.1 µM: HCT-116, 3 h, single point, 100 nM compound, 3 hrs; for IC50: HCT-116, HTRF pERK
Procedure, shortened: (§2)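 A cell-based HTRF pERK assay: ten-point, threefold titrations beginning at 10 uM were applied for 3 hrs, with 0.2 uM Trametinib wells as the minimum control. Cells were lysed cold, and lysate was incubated with the antibody pair for 2 hrs before reading.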

[6] = target: T3, KRas^G12D (Homo sapiens, UniProt P01116, G12D); test: KRas binding assay (TR-FRET tracer displacement), KRas G12D
T3 construct: Biotinylated KRas (corresponding to amino acids 1-169, produced at Accelegan Inc.); biotin (biotinylated); purchased Accelegan Inc

[7] = tested on: KRas-mediated phosphorylation of ERK in MKN1 cells; test: Inhibition of KRas-mediated phosphorylation of ERK (Cisbio HTRF pERK), MKN1 cells; format: cell-based; conditions: Homo sapiens, MKN-1
Procedure, shortened: (§3)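 Seeding density was 6,000 cells/well; medium RPMI, 10% FBS. Read-out by homogeneous time-resolved fluorescence (pERK) after 4 hours covered at room temperature.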

[8] = tested on: KRas-mediated phosphorylation of ERK in PSN1 cells; test: Inhibition of KRas-mediated phosphorylation of ERK (Cisbio HTRF pERK), PSN1 cells; format: cell-based; conditions: Homo sapiens
Procedure, shortened: as §3

[9] = tested on: KRas-mediated phosphorylation of ERK in A549 cells; test: Inhibition of KRas-mediated phosphorylation of ERK (Cisbio HTRF pERK), A549 cells; format: cell-based; conditions: Homo sapiens; for inhibition at 0.1 µM: A549, 3 h, single point, 100 nM compound, 3 hrs
Procedure, shortened: as §2

[10] = tested on: KRas-mediated phosphorylation of ERK in AsPC-1 cells; test: Inhibition of KRas-mediated phosphorylation of ERK (Cisbio HTRF pERK), AsPC-1 cells; format: cell-based; conditions: Homo sapiens, ASPC1, AsPC-1 cells; HTRF pERK
Procedure, shortened: as §1

[11] = target: T4, KRas^G12R (Homo sapiens, UniProt P01116, G12R); test: KRas binding assay (TR-FRET tracer displacement), KRas G12R
T4 construct: Biotinylated KRas (corresponding to amino acids 1-169, produced at Accelegan Inc.); biotin (biotinylated); purchased Accelegan Inc

[12] = target: T5, KRas^G12C (Homo sapiens, UniProt P01116, G12C); test: KRas binding assay (TR-FRET tracer displacement), KRas G12C; conditions: single point, 10 nM compound, TR-FRET
T5 construct: Biotinylated KRas (corresponding to amino acids 1-169, produced at Accelegan Inc.); biotin (biotinylated); purchased Accelegan Inc

[13] = tested on: KRas-mediated phosphorylation of ERK in H460 cells; test: Inhibition of KRas-mediated phosphorylation of ERK (Cisbio HTRF pERK), H460 cells; format: cell-based; conditions: Homo sapiens; for inhibition at 0.1 µM: NCI-H460, 3 h, single point, 100 nM compound, 3 hrs; for IC50: NCI-H460, HTRF pERK
Procedure, shortened: as §1

[14] = target: T6, KRas^G13D (Homo sapiens, UniProt P01116, G13D); test: KRas binding assay (TR-FRET tracer displacement), KRas G13D; conditions: single point, 10 nM compound, TR-FRET
T6 construct: Biotinylated KRas (corresponding to amino acids 1-169, produced at Accelegan Inc.); biotin (biotinylated); purchased Accelegan Inc

[15] = target: T7, KRas^G12V (Homo sapiens, UniProt P01116, G12V); test: KRas binding assay (TR-FRET tracer displacement), KRas G12V
T7 construct: Biotinylated KRas (corresponding to amino acids 1-169, produced at Accelegan Inc.); biotin (biotinylated); purchased Accelegan Inc

[16] = target: T8, KRas^G12S (Homo sapiens, UniProt P01116, G12S); test: KRas binding assay (TR-FRET tracer displacement), KRas G12S; conditions: single point, 10 nM compound, TR-FRET
T8 construct: Biotinylated KRas (corresponding to amino acids 1-169, produced at Accelegan Inc.); biotin (biotinylated); purchased Accelegan Inc

[17] = target: T9, KRas^WT (Homo sapiens, UniProt P01116); test: KRas binding assay (TR-FRET tracer displacement), KRas WT; conditions: single point, 10 nM compound, TR-FRET
T9 construct: Biotinylated KRas (corresponding to amino acids 1-169, produced at Accelegan Inc.); biotin (biotinylated); purchased Accelegan Inc
T9 sequence (P01116 1-169 isoform P01116-2): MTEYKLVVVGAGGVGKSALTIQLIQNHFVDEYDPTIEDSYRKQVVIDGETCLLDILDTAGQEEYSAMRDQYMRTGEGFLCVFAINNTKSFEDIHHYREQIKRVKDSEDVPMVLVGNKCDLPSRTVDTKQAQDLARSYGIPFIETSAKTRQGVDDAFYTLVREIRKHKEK

T4 sequence (P01116 1-169 isoform P01116-2 G12R): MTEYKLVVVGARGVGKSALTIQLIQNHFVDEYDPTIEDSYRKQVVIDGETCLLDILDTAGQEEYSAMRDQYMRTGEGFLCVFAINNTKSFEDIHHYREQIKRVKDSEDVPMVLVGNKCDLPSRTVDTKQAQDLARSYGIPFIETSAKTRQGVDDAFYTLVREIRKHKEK
T3 sequence (P01116 1-169 isoform P01116-2 G12D): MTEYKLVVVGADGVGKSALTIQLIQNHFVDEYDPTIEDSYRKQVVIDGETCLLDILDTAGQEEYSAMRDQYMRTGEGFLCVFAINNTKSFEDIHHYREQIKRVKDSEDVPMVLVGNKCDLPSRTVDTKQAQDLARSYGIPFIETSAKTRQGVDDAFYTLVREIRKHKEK
T6 sequence (P01116 1-169 isoform P01116-2 G13D): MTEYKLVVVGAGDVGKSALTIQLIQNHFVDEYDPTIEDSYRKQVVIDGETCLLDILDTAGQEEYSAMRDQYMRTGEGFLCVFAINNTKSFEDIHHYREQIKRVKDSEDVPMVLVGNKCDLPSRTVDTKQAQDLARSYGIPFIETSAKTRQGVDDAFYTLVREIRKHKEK
T7 sequence (P01116 1-169 isoform P01116-2 G12V): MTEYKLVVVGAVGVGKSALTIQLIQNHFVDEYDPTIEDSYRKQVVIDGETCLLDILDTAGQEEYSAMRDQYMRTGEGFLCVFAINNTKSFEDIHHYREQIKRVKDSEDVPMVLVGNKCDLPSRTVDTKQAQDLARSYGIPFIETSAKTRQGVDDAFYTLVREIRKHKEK
T1 sequence (P01116 1-169 isoform P01116-2 G12A): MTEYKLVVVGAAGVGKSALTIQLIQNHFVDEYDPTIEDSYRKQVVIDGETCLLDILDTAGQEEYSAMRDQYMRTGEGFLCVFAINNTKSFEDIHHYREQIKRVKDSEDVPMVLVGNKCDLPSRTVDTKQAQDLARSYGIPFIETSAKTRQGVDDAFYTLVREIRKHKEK
T8 sequence (P01116 1-169 isoform P01116-2 G12S): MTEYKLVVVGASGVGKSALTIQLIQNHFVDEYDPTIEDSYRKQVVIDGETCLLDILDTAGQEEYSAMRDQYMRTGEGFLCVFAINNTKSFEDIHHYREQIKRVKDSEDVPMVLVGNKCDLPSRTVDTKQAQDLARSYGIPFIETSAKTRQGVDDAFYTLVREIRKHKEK
T2 sequence (P01116 1-169 isoform P01116-2 Q61H): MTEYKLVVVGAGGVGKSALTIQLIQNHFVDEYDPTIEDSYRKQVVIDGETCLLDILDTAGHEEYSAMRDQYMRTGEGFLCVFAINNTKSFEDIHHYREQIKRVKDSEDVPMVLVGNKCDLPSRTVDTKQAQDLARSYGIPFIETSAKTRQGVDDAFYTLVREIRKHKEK
T5 sequence (P01116 1-169 isoform P01116-2 G12C): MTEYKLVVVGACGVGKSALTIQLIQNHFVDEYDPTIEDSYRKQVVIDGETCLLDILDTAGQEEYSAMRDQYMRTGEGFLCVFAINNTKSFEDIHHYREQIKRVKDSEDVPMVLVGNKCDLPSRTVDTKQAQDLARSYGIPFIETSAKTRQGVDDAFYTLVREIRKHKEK

| Structure (SMILES) | inhibition at 0.01 µM [1] | IC50 [2] | inhibition at 0.1 µM [3] | inhibition at 0.01 µM [4] | inhibition at 0.1 µM [5] | IC50 [5] | IC50 [6] | IC50 [7] | IC50 [8] | inhibition at 0.1 µM [9] | IC50 [10] | IC50 [11] | inhibition at 0.01 µM [12] | inhibition at 0.1 µM [13] | IC50 [13] | inhibition at 0.01 µM [14] | IC50 [15] | inhibition at 0.01 µM [16] | inhibition at 0.01 µM [17] | also measured |
| --- | --- | --- | --- | --- | --- | --- | --- | --- | --- | --- | --- | --- | --- | --- | --- | --- | --- | --- | --- | --- |
| CCc1c(F)ccc2cc(O)cc(-c3ncc4c(N5CCC(O)c6nn(C(=O)N(C)C)cc6C5)nc(OC[C@@]56CCCN5C[C@H](F)C6)nc4c3F)c12 (stereo partly drawn) [Example 674, 5-(7-(8-ethyl-7-fluoro-3-hydroxynaphthalen-1-yl)-8-fluoro-2-(((2R,7aS)-2-fluorohexahydro-1H-pyrrolizin-7a-yl)methoxy)pyrido[4,3-d]pyrimidin-4-yl)-8-hydroxy-N,N-dimethyl-5,6,7,8-tetrahydropyrazolo[4,3-c]azepine-2(4H)-carboxamide] | 93% | 21 nM | 97% | 95% | 17% | 191 nM | < 2 nM | 6 nM | > 10000 nM | 74% | 9 nM | < 2 nM | 98% | 63% | 69 nM | 92% | < 2 nM | 97% | 91% | IC50 ([3]; NCI-H358, HTRF pERK): 2 nM; IC50 ([9]; HTRF pERK): 30 nM |
| CCc1c(F)ccc2cc(O)cc(-c3ncc4c(N5CCCCn6nc(C(=O)N7CCOCC7)cc6C5)nc(OC[C@@]56CCCN5C[C@H](F)C6)nc4c3F)c12 [Example 690, (5-(7-(8-ethyl-7-fluoro-3-hydroxynaphthalen-1-yl)-8-fluoro-2-(((2R,7aS)-2-fluorotetrahydro-1H-pyrrolizin-7a(5H)-yl)methoxy)pyrido[4,3-d]pyrimidin-4-yl)-4,5,6,7,8,9-hexahydropyrazolo[1,5-a][1,4]diazocin-2-yl)(morpholino)methanone] | 93% | 37 nM | 79% | 92% | 20% |  | < 2 nM | 16 nM | 7620 nM | 4% | 81 nM | < 2 nM | 97% | 37% |  | 90% | < 2 nM | 96% | 91% |  |
| CCc1c(F)ccc2cc(O)cc(-c3ncc4c(N5CC6CC(O)C(C6)C5)nc(OC[C@]56CCCN5[C@H](COC(=O)N(C)C)CC6)nc4c3F)c12 (stereo partly drawn) [Example 707, ((3S,7aR)-7a-(((7-(8-ethyl-7-fluoro-3-hydroxynaphthalen-1-yl)-8-fluoro-4-(6-hydroxy-3-azabicyclo[3.2.1]octan-3-yl)pyrido[4,3-d]pyrimidin-2-yl)oxy)methyl)hexahydro-1H-pyrrolizin-3-yl)methyl dimethylcarbamate] | 76% | 24 nM | 88% | 85% | 47% |  | 9 nM | 2 nM | 4410 nM | 71% | 79 nM | < 2 nM | 84% | 84% |  | 85% | 4 nM | 85% | 76% |  |
| CCc1c(F)ccc2cc(O)cc(-c3ncc4c(N5CCCC6(C5)NC(=O)NC6=O)nc(OC[C@]56CCCN5[C@H](COC(=O)N(C)C)CC6)nc4c3F)c12 (stereo partly drawn) [Example 709, ((3S,7aR)-7a-(((4-(2,4-dioxo-1,3,7-triazaspiro[4.5]decan-7-yl)-7-(8-ethyl-7-fluoro-3-hydroxynaphthalen-1-yl)-8-fluoropyrido[4,3-d]pyrimidin-2-yl)oxy)methyl)hexahydro-1H-pyrrolizin-3-yl)methyl dimethylcarbamate] | 80% | 53 nM | 101% | 99% | 65% |  | < 2 nM | 3 nM | 253 nM | 62% | 63 nM | < 2 nM | 95% | 88% |  | 97% | < 2 nM | 94% | 91% |  |
| CCc1c(F)ccc2cc(O)cc(-c3ncc4c(N5CCCn6nc(C(=O)N(C)C)cc6C5)nc(OC[C@]56CCCN5[C@H](COC(=O)N(C)C)CC6)nc4c3F)c12 [Example 714, ((3S,7aR)-7a-(((4-(2-(dimethylcarbamoyl)-7,8-dihydro-4H-pyrazolo[1,5-a][1,4]diazepin-5(6H)-yl)-7-(8-ethyl-7-fluoro-3-hydroxynaphthalen-1-yl)-8-fluoropyrido[4,3-d]pyrimidin-2-yl)oxy)methyl)hexahydro-1H-pyrrolizin-3-yl)methyl dimethylcarbamate] | 89% | 89 nM | 73% | 87% |  | 760 nM | < 2 nM | 95 nM | > 10000 nM | 16% | 26 nM | 2 nM | 94% |  | 193 nM | 85% | < 2 nM | 95% | 85% |  |
| CCc1c(F)ccc2cc(O)cc(-c3ncc4c(N5CCCC6(CNS(=O)(=O)N6)C5)nc(OC[C@]56CCCN5[C@H](COC(=O)N(C)C)CC6)nc4c3F)c12 (stereo partly drawn) [Example 716, ((3S,7aR)-7a-(((4-(2,2-dioxido-2-thia-1,3,7-triazaspiro[4.5]decan-7-yl)-7-(8-ethyl-7-fluoro-3-hydroxynaphthalen-1-yl)-8-fluoropyrido[4,3-d]pyrimidin-2-yl)oxy)methyl)hexahydro-1H-pyrrolizin-3-yl)methyl dimethylcarbamate] | 83% | 273 nM | 71% | 98% | 34% |  | < 2 nM | 9 nM | 1020 nM | 37% | 39 nM | < 2 nM | 97% | 56% |  | 98% | < 2 nM | 95% | 93% |  |
